Legend:
[1] = test system: mucinous cell lines (JHOM2B, OMC3, and COV644); assay: SRB assay, joint statements for the mucinous cell lines incl. effect of BNP7787 on BNP1350-induced cytotoxicity; type: cell-based, human; settings: each of JHOM2B, OMC3, COV644
Method: In vitro studies were conducted in human mucinous ovarian cancer cell lines including JHOM2B, OMC3, and COV644. In one series of experiments, the dose response curves for BNP1350 (also known as Karenitecin), SN-38 (Irinotecan), and Topotecan were obtained and IC50 values were determined. In a second series of experiments, the effect of BNP7787 (2,2′-dithio-bis-ethane sulfonate; Tavocept) on BNP1350-induced cytotoxicity at selected BNP1350 concentrations was examined.
The JHOM2B and OMC3 cell lines were purchased from Riken Cell Bank (Japan). The COV644 cell line was purchased from SigmaAldrich. Cells were maintained as monolayered cultures in T-75 flasks and then seeded to microtiter plate wells for experiments. Population doubling-times for these three cell lines were long (i.e., exceeding 40 hours, and for some of the cell lines approaching 96 hours); therefore, the Applicants conducted initial pilot experiments and determined optimal seeding density to obtain A570 values in untreated controls that would fall within the linear range of the SRB assay after seven (7) total days of cell growth. […]
The cells were manipulated in a Microzone laminar flow hood traditionally used for maintaining aseptic environments around automated instrumentation such as microplate robots, and the like. […] Cells were counted using a ViCell counter (Beckman-Coulter). An automated plate washer/stacker (ELx405/BioStak from BioTek Instruments) and a microplate reader (SpectraMax Plus from Molecular Devices) were used for conducting the SRB assay and determining A570 values for wells in the plates and the percentage of control values. Prior to SRB assays, cell viability was monitored by evaluation of microtiter plate wells. […]
The sulforhodamine B (SRB) cytotoxicity assay was used to assess cell survival. […] Plates were agitated (gently) for 5 minutes and the absorbance values of the SRB dye-protein adduct at 570 nanometers (A570) were determined using an automated microtiter plate reader (SpectraMax Plus, Molecular Devices). […]

[2] = Toxicology study of single daily doses given orally and intravenously for five consecutive days; type: in vivo; settings: oral and i.v. single daily doses

CC[C@@]1(O)C(=O)OCc2c1cc1n(c2=O)Cc2c-1nc1ccccc1c2CC[Si](C)(C)C [Karenitecin, (4S)-4-ethyl-4-hydroxy-11-[2-(trimethylsilyl)ethyl]-1H-pyrano[3′:4′:6,7]indolizino[1,2-b]quinoline-3,14(4H,12H)-dione]
Potency compared with SN38 and topotecan (dose response curves) [1]: much more potent
Tolerability of oral doses [2]: good tolerability
